pIC50: −log10 of the molar value.

For the assay, the target named is T1, EGFR TMLRCS (Homo sapiens, UniProt P00533, C797S/L858R/T790M).
T1 construct: host or cells: BaF3-TMLRCS (Ba/F3 cells, kept under puromycin selection)
T1 sequence (P00533 25-1210 T790M/C797S/L858R): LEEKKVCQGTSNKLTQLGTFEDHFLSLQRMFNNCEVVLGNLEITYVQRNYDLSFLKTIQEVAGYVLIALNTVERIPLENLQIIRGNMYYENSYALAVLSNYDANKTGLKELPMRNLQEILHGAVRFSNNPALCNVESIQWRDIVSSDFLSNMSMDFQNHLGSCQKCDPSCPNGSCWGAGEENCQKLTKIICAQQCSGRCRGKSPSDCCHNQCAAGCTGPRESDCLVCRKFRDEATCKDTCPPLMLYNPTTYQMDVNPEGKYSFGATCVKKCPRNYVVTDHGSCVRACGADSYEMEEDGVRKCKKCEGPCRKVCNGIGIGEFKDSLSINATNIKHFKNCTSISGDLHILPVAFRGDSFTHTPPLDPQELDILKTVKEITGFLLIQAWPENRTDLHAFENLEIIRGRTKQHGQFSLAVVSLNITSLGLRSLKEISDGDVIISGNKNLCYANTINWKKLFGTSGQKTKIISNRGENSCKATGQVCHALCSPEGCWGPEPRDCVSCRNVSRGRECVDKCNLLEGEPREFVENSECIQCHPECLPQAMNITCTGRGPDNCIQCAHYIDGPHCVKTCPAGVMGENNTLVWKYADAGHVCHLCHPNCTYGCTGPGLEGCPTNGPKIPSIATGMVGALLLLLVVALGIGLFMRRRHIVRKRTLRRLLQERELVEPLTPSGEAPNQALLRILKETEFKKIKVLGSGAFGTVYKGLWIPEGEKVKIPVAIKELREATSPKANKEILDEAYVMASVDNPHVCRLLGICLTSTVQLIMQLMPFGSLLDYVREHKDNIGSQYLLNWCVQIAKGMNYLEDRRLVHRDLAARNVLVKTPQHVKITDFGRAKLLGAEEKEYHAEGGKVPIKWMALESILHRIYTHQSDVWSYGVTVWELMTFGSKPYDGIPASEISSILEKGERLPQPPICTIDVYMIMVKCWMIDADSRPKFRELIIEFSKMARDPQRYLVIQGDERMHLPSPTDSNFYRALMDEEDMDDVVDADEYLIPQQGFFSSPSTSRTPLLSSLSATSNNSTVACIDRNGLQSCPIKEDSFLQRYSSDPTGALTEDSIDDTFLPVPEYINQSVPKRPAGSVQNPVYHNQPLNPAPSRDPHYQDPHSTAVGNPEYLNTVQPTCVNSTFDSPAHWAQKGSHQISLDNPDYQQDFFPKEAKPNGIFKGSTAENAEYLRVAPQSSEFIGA
The experiment in a line: HTRF Phospho EGFR TMLRCS Assay (Cellular). The class given is cell-based. Conditions: BaF3-TMLRCS cell line, 4 hours incubation, Phospho-EGFR HTRF readout. Put shortly:
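BaF3 cells expressing EGFR L858R/T790M/C797S, 20000/well, treated with compound in dose response for 4 h at 37 °C, 5% CO2. After lysis, phospho-EGFR detected by HTRF with cryptate and d2 antibodies over 4 h at room temperature. Signal taken as 665/616 nm ratio ×10000, normalized.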
In general terms: TR-FRET usually uses a lanthanide donor and a delayed reading to cut background.
`Cc1cc(-c2ccc(OCCN3CCC(CO)CC3)cc2)c(Cl)c2nn(C(C(=O)Nc3nccs3)c3ncn4c3C[C@@H](F)C4)cc12` (mixture of isomers) [Example 132, rac-2-(7-Chloro-6-(4-(2-(4-(hydroxymethyl)piperidin-1-yl)ethoxy)phenyl)-4-methyl-2H-indazol-2-yl)-2-((R)-6-fluoro-6,7-dihydro-5H-pyrrolo[1,2-c]imidazol-1-yl)-N-(thiazol-2-yl)acetamide] showed a pIC50 of 8.15.
With `CCN1CC[C@H](c2ccc(-c3cc(Cl)c4cn(C(C(=O)Nc5nccs5)c5ncn6c5C[C@@H](F)C6)nc4c3Cl)cc2)[C@@H](F)C1` (single isomer, unassigned) [Example 37] the figure was 8.00; with `O=C(Nc1nccs1)C(c1ncn2c1C[C@@H](F)C2)n1cc2c(Cl)cc(-c3ccc([C@@H]4CCN(CCO)C[C@H]4F)cc3)c(Cl)c2n1` (single isomer, unassigned) [Example 54], 8.30.
The figure for `O=C(Nc1nccs1)C(c1ncn2c1C[C@@H](F)C2)n1cc2c(Cl)cc(-c3ccc([C@@H]4CCN(C5CC(O)C5)C[C@H]4F)cc3)c(Cl)c2n1` (single isomer, unassigned) [Example 55] is 8.30.
With `CCN1CC[C@@H](c2ccc(-c3cc(C)c4cn(C(C(=O)Nc5nccs5)c5ncn6c5C[C@@H](F)C6)nc4c3C)cc2)[C@H](F)C1` (single isomer, unassigned) [Example 119] the figure was 7.85; with `CCN1CC[C@@H](c2ccc(-c3cc(C)c4cn(C(C(=O)Nc5nccs5)c5ncn6c5CCC6)nc4c3Cl)cc2)[C@H](F)C1` (single isomer, unassigned) [Example 127], 8.05.
Regarding `CCN1CC[C@@H](c2ccc(-c3cc(C)c4cn(C(C(=O)Nc5nccs5)c5ncn6c5C[C@@H](F)C6)nc4c3Cl)cc2)[C@H](F)C1` (single isomer, unassigned) [Example 129], the pIC50 is 8.00.
`CCN1CCN(c2ccc(-c3cc(Cl)c4cn(C(C(=O)Nc5nccs5)c5ncn6c5C[C@@H](F)C6)nc4c3Cl)cc2)CC1` (stereo partly drawn) [Example 26, 2-(4,7-Dichloro-6-(4-(4-ethylpiperazin-1-yl)phenyl)-2H-indazol-2-yl)-2-((R)-6-fluoro-6,7-dihydro-5H-pyrrolo[1,2-c]imidazol-1-yl)-N-(thiazol-2-yl)acetamide] showed a pIC50 of 8.40.
With `O=C(Nc1nccs1)C(c1ncn2c1C[C@@H](F)C2)n1cc2c(Cl)cc(-c3cnc(N4CCOCC4)nc3)c(Cl)c2n1` (stereo partly drawn) [Example 27, 2-(4,7-Dichloro-6-(2-morpholinopyrimidin-5-yl)-2H-indazol-2-yl)-2-((R)-6-fluoro-6,7-dihydro-5H-pyrrolo[1,2-c]imidazol-1-yl)-N-(thiazol-2-yl)acetamide] the figure was 8.30; with `O=C(Nc1nccs1)C(c1ncn2c1C[C@@H](F)C2)n1cc2c(Cl)cc(-c3ccc(C4CCN(C5CC5)CC4)cc3)c(Cl)c2n1` (stereo partly drawn) [Example 28, 2-(4,7-Dichloro-6-(4-(1-cyclopropylpiperidin-4-yl)phenyl)-2H-indazol-2-yl)-2-((R)-6-fluoro-6,7-dihydro-5H-pyrrolo[1,2-c]imidazol-1-yl)-N-(thiazol-2-yl)acetamide], 7.77.
The compound `O=C(Nc1nccs1)C(c1ncn2c1C[C@@H](F)C2)n1cc2c(Cl)cc(-c3ccc(C4CCN(CCF)CC4)cc3)c(Cl)c2n1` (stereo partly drawn) [Example 33, 2-(4,7-Dichloro-6-(4-(1-(2-fluoroethyl)piperidin-4-yl)phenyl)-2H-indazol-2-yl)-2-((R)-6-fluoro-6,7-dihydro-5H-pyrrolo[1,2-c]imidazol-1-yl)-N-(thiazol-2-yl)acetamide] gave a pIC50 of 8.15. This pIC50 lies 0.38 log units higher than the previous one.
As for `CN(C)CCc1ccc(-c2cc(Cl)c3cn(C(C(=O)Nc4nccs4)c4ncn5c4C[C@@H](F)C5)nc3c2Cl)cc1` (stereo partly drawn) [Example 35, 2-(4,7-Dichloro-6-(4-(2-(dimethylamino)ethyl)phenyl)-2H-indazol-2-yl)-2-((R)-6-fluoro-6,7-dihydro-5H-pyrrolo[1,2-c]imidazol-1-yl)-N-(thiazol-2-yl)acetamide], the pIC50 is 8.22.

By pIC50 is commonly meant the negative decadic logarithm of the IC50, by convention in mol/L.
